# Patent US9096832B2, “Differentiation of human embryonic stem cells” (LifeScan, Inc., priority 2007, dated 2015)
# Test system: H9 embryonic stem cells
# Assay: Microarray analysis of definitive endoderm stage cells on […] or MEFs +/- Wnt-3a (Table VI)
# Assay type: cell-based, human
# Settings: for mean normalized intensity: ESTs: DE treatment in low serum on MEFS, log format
# Procedure: Controls for each group included cells plated on [sequence]—coated dishes and cultured in MEF-conditioned medium or cells plated on MEFs and cultured in ES medium. All groups contained three biological replicates and each biological replicate was repeated on two separate gene chips.
# Sample preparation, hybridization, and image analysis were performed according to the Affymetrix Human Genome U133 Plus 2.0 Array. Following normalization and a log transformation, data analysis was performed using OmniViz® software (MA) and [sequence] […] Significant differences in gene expression between the samples were evaluated using analysis of variance and an F-test with adjusted P-value (Benjamini and Hochberg correction) of less-than or equal to 0.05. Only genes with a present call in at least one group were included in the analysis.
substance,measurement,setting,value
"Activin A: activin A (a member of the TGFβ superfamily), R&D Systems; 'w/o wnt' in Table VII = 100 ng/ml Activin A without Wnt3a",mean normalized intensity: ESTs,gene line r2134,−0.9461
same,mean normalized intensity: ESTs,gene line r2148,5.334
same,"Intensity (log): 6-phosphofructo-2-kinasefructose-2,6-biphosphatase 4","low serum, on MATRIGEL",−0.2429
same,"Intensity (log): ESTs, Highly similar to IHH_HUMAN INDIAN HEDGEHOG PROTEIN PRECURSOR (H. sapiens)","low serum, on MATRIGEL",−0.654
same,"Intensity (log): ESTs, Moderately similar to JE0284 Mm-1 cell derived transplantability-associated protein 1b (H. sapiens)","low serum, on MATRIGEL",−2.377
same,"Intensity (log): ESTs, Weakly similar to FCE2 MOUSE LOW AFFINITY IMMUNOGLOBULIN EPSILON FC RECEPTOR (M. musculus)","low serum, on MATRIGEL",0.4942
same,"Intensity (log): ESTs, Weakly similar to the 331st table hypothetical protein KIAA0555 (H. sapiens)","low serum, on MATRIGEL",−1.574
same,Intensity (log): G protein-coupled receptor,"low serum, on MATRIGEL",1.507
same,Intensity (log): G protein-coupled receptor 49,"low serum, on MATRIGEL",0.2655
same,"Intensity (log): Homo sapiens Kell blood group (KEL), mRNA","low serum, on MATRIGEL",−2.205
same,"Intensity (log): Homo sapiens MLL septin-like fusion (MSF), mRNA","low serum, on MATRIGEL",−3.292
same,"Intensity (log): Homo sapiens Mix-like homeobox protein 1 (MILD1) mRNA, complete cds","low serum, on MATRIGEL",−1.546
same,"Intensity (log): Homo sapiens Rho GTPase activating protein 6 (ARHGAP6), transcript variant 2, mRNA","low serum, on MATRIGEL",−1.104
same,"Intensity (log): Homo sapiens TBX3-iso protein (TBX3-iso), mRNA","low serum, on MATRIGEL",−2.346
same,"Intensity (log): Homo sapiens angiopoietin 2 (ANGPT2), mRNA","low serum, on MATRIGEL",−2.93
same,"Intensity (log): Homo sapiens ankyrin-like with transmembrane domains 1 (ANKTM1), mRNA","low serum, on MATRIGEL",−1.109
same,"Intensity (log): Homo sapiens apolipoprotein A-I (APOA1), mRNA","low serum, on MATRIGEL",−1.471
same,"Intensity (log): Homo sapiens apolipoprotein A-II (APOA2), mRNA","low serum, on MATRIGEL",−1.033
same,"Intensity (log): Homo sapiens arylsulfatase E (chondrodysplasia punctata 1) (ARSE), mRNA","low serum, on MATRIGEL",0.283
same,"Intensity (log): Homo sapiens atrophin-1 interacting protein 1; activin receptor interacting protein 1 (KIAA0705), mRNA","low serum, on MATRIGEL",−4.308
same,"Intensity (log): Homo sapiens beta-site APP cleaving enzyme (BACE) mRNA, complete cds","low serum, on MATRIGEL",−2.0354
same,"Intensity (log): Homo sapiens cDNA FLJ11550 fis, clone HEMBA1002970","low serum, on MATRIGEL",−1.222
same,"Intensity (log): Homo sapiens cDNA FLJ12993 fis, clone NT2RP3000197","low serum, on MATRIGEL",0.1473
same,"Intensity (log): Homo sapiens cDNA FLJ13221 fis, clone NT2RP4002075","low serum, on MATRIGEL",0.3557
same,"Intensity (log): Homo sapiens cardiac ventricular troponin C mRNA, complete cds","low serum, on MATRIGEL",−0.5497
same,"Intensity (log): Homo sapiens cartilage linking protein 1 (CRTL1), mRNA","low serum, on MATRIGEL",−1.315
same,"Intensity (log): Homo sapiens cell adhesion molecule with homology to L1CAM (close homologue of L1) (CHL1), mRNA","low serum, on MATRIGEL",−0.5412
same,"Intensity (log): Homo sapiens chromosome 19, cosmid R31181","low serum, on MATRIGEL",−0.2589
same,Intensity (log): Homo sapiens clone 23736 mRNA sequence,"low serum, on MATRIGEL",−0.04718
same,"Intensity (log): Homo sapiens cryptic mRNA, complete cds","low serum, on MATRIGEL",0.1049
same,"Intensity (log): Homo sapiens cystatin S (CST4), mRNA","low serum, on MATRIGEL",0.9245
same,"Intensity (log): Homo sapiens cystatin SA (CST2), mRNA","low serum, on MATRIGEL",−0.1022
same,"Intensity (log): Homo sapiens cystatin SN (CST1), mRNA","low serum, on MATRIGEL",0.07293
same,"Intensity (log): Homo sapiens cytidine deaminase (CDA), mRNA","low serum, on MATRIGEL",−3.891
same,"Intensity (log): Homo sapiens dual specificity phosphatase 4 (DUSP4), mRNA","low serum, on MATRIGEL",0.9539
same,"Intensity (log): Homo sapiens fibroblast growth factor 8 (androgen-induced) (FGF8), mRNA","low serum, on MATRIGEL",−4.328
same,"Intensity (log): Homo sapiens fibroblast growth factor 17 (FGF17), mRNA","low serum, on MATRIGEL",−0.8946
same,"Intensity (log): Homo sapiens frizzled-related protein (FRZB), mRNA","low serum, on MATRIGEL",0.565
same,"Intensity (log): Homo sapiens gastrin-releasing peptide (GRP), mRNA","low serum, on MATRIGEL",−2.741
same,"Intensity (log): Homo sapiens glycophorin E (GYPE), mRNA","low serum, on MATRIGEL",−2.016
same,Intensity (log): Homo sapiens glycophorin Erik STA (GPErik) gene complete cds,"low serum, on MATRIGEL",−1.194
same,"Intensity (log): Homo sapiens growth differentiation factor 3 (GDF3), mRNA","low serum, on MATRIGEL",1.673
same,"Intensity (log): Homo sapiens haptoglobin (HP), mRNA","low serum, on MATRIGEL",−1.101
same,"Intensity (log): Homo sapiens haptoglobin-related protein (HPR), mRNA","low serum, on MATRIGEL",−2.6068
same,"Intensity (log): Homo sapiens homeobox protein goosecoid mRNA, complete cds","low serum, on MATRIGEL",−4.42
same,"Intensity (log): Homo sapiens hypothetical protein FLJ10718 (FLJ10718), mRNA","low serum, on MATRIGEL",2.605
same,"Intensity (log): Homo sapiens hypothetical protein FLJ10970 (FLJ10970), mRNA","low serum, on MATRIGEL",−0.432
same,"Intensity (log): Homo sapiens hypothetical protein FLJ11316 (FLJ11316), mRNA","low serum, on MATRIGEL",−0.9047
same,"Intensity (log): Homo sapiens hypothetical protein FLJ22252 similar to SRY-box containing gene 17 (FLJ22252), mRNA","low serum, on MATRIGEL",1.368
same,"Intensity (log): Homo sapiens lumican (LUM), mRNA","low serum, on MATRIGEL",−4.057
same,"Intensity (log): Homo sapiens mRNA for GATA-6, complete cds","low serum, on MATRIGEL",2.219
same,"Intensity (log): Homo sapiens mRNA for KIAA1409 protein, partial cds","low serum, on MATRIGEL",0.3683
same,Intensity (log): Homo sapiens mRNA; cDNA DKFZp434D0818 (from clone DKFZp434D0818),"low serum, on MATRIGEL",−2.634
same,Intensity (log): Homo sapiens mRNA; cDNA DKFZp586J0624 (from clone DKFZp586J0624); complete cds,"low serum, on MATRIGEL",−0.8352
same,"Intensity (log): Homo sapiens presenilin stabilization factor b (PSF) mRNA, complete cds; alternatively spliced","low serum, on MATRIGEL",−0.8617
same,"Intensity (log): Homo sapiens reserved (KCNK12), mRNA","low serum, on MATRIGEL",−0.4687
same,"Intensity (log): Homo sapiens retinoid X receptor, gamma (RXRG), mRNA","low serum, on MATRIGEL",−2.375
same,"Intensity (log): Homo sapiens sema domain, immunoglobulin domain (Ig), short basic domain, secreted, (semaphorin) 3E (SEMA3E), mRNA","low serum, on MATRIGEL",−0.786
same,"Intensity (log): Homo sapiens sema domain, seven thrombospondin repeats (type 1 and type 1-like), transmembrane domain (TM) and short cytoplasmic domain, (semaphorin) 5A (SEMA5A), mRNA","low serum, on MATRIGEL",−1.533
same,"Intensity (log): Homo sapiens solute carrier family 21 (prostaglandin transporter), member 2 (SLC21A2), mRNA","low serum, on MATRIGEL",0.7114
same,"Intensity (log): Homo sapiens type VI collagen alpha 2 chain precursor (COL6A2) mRNA, complete cds, alternatively spliced","low serum, on MATRIGEL",1.7011
same,"Intensity (log): Homo sapiens, alpha-1 (VI) collagen","low serum, on MATRIGEL",−3.662
same,"Intensity (log): Homo sapiens, clone MGC: 4655, mRNA, complete cds","low serum, on MATRIGEL",2.3772
same,"Intensity (log): Human (clone 8B1) Br-cadherin mRNA, complete cds","low serum, on MATRIGEL",−2.179
same,"Intensity (log): Human (clone HSY3RR) neuropeptide Y receptor (NPYR) mRNA, complete cds","low serum, on MATRIGEL",1.775
same,"Intensity (log): Human DNA sequence from clone RP1-181C24 on chromosome 6p11.1-12.2. Contains the 3 end of the BMP5 gene for bone morphogenetic protein 5, ESTs, STSs and GSSs","low serum, on MATRIGEL",−3.723
same,"Intensity (log): Human Fritz mRNA, complete cds","low serum, on MATRIGEL",0.4366
same,"Intensity (log): Human dipeptidyl peptidase IV (CD26) mRNA, complete cds","low serum, on MATRIGEL",−3.611
same,"Intensity (log): Human glycophorin HeP2 mRNA, partial cds","low serum, on MATRIGEL",−0.8435
same,"Intensity (log): Human link protein mRNA, complete cds","low serum, on MATRIGEL",−1.94
same,Intensity (log): Human mRNA for alpha-1 type II collagen,"low serum, on MATRIGEL",−2.8736
same,Intensity (log): Human mRNA for apolipoprotein AI (apo AI),"low serum, on MATRIGEL",0.2151
same,"Intensity (log): Human prostatic secretory protein 57 mRNA, complete cds","low serum, on MATRIGEL",−3.013
same,Intensity (log): KIAA1462 protein,"low serum, on MATRIGEL",−3.846
same,"Intensity (log): MCP-1 = monocyte chemotactic protein (human, aortic endothelial cells, mRNA, 661 nt)","low serum, on MATRIGEL",−2.276
same,Intensity (log): Rho GDP dissociation inhibitor (GDI) alpha,"low serum, on MATRIGEL",−1.544
same,"Intensity (log): WAS protein family, member 2","low serum, on MATRIGEL",−2.187
same,"Intensity (log): collagen, type IX, alpha 2","low serum, on MATRIGEL",1.27
same,"Intensity (log): collagen, type VI, alpha 1","low serum, on MATRIGEL",−1.418
same,"Intensity (log): hepatocyte nuclear factor 4, alpha","low serum, on MATRIGEL",−4.266
same,Intensity (log): homeo box HB9,"low serum, on MATRIGEL",−1.656
same,Intensity (log): hypothetical protein FLJ21032,"low serum, on MATRIGEL",0.3557
same,Intensity (log): hypothetical protein FLJ23091,"low serum, on MATRIGEL",0.3234
same,Intensity (log): microfibrillar-associated protein 4,"low serum, on MATRIGEL",0.06379
same,"Intensity (log): myristoylated alanine-rich protein kinase C substrate (MARCKS, 80K-L)","low serum, on MATRIGEL",−0.7172
